Earlier results in patent US6534094B2, “Manufacturing process of microcapsules for sustained release of water soluble peptides” (Eriochem S.A., priority 2000, dated 2003).

Conditions: superactive agonist of LH-RH; fold of the biological activity of LH-RH

SMILES: CCNC(=O)[C@@H]1CCCN1C(=O)[C@H](CCCNC(=N)N)NC(=O)[C@H](CC(C)C)NC(=O)[C@@H](CC(C)C)NC(=O)[C@H](Cc1ccc(O)cc1)NC(=O)[C@H](CO)NC(=O)[C@H](Cc1c[nH]c2ccccc12)NC(=O)[C@H](Cc1c[nH]cn1)NC(=O)[C@@H]1CCC(=O)N1 [leuprolide acetate]
- biological activity relative to LH-RH: approximately 10 times
